The text below walks through data of patent US10583137B2, “Triazole DAGLα inhibitors” (THE SCRIPPS RESEARCH INSTITUTE, priority 2015, dated 2020).

One test deals with DAGLα (hDAGLα-FLAG) (Homo sapiens (Human), UniProt Q9Y4D2). The test is described as follows: competitive ABPP, membrane proteome of transfected HEK293T cells. To be noted: for inhibition at 0.0032 µM: 3.2 nM, read-out: DAGLα % inh. 3.2 nM; for IC50: read-out: DAGLα IC50. It counts as biochemical. How it is done:
(§1) Compounds 19 and 20 were tested for in vitro inhibition of DAGLα and DAGLβ as measured by competitive activity-based protein profiling (ABPP) of […] using a HT-01 probe (targets DAGLα and DAGLβ) and a FP-Rh probe (targets serine hydrolases).
(§2) Briefly, membrane proteome (1 mg/ml, 20 μL) was prepared from HEK293T cells (transiently transfected with hDAGLα-FLAG or hDAGLα-S472A-FLAG, hDAGLβ-FLAG or hDAGLβ-S443A-FLAG) as described in Example 16. The proteome was incubated at room temperature with vehicle (DMSO) or compound in 0.5 μL DMSO for 30 min. The membrane proteome sample was subsequently treated for 30 min with HT-01 probe (1 μM) or FP-Rh probe (1 μM). The reactions were quenched with 10 μL 3× Laemmli sample buffer (final concentrations: 60 mM Tris-Cl pH 6.8, 2% (w/v) SDS, 10% (v/v) glycerol, 5% (v/v) (3-mercaptoethanol, 0.01% (v/v) bromophenol blue). The samples were directly loaded and resolved on SDS page gel (10% acrylamide). The gels were scanned using a ChemiDoc MP system (Cy3 settings, 605/50 filter).
(§3) The resolved proteins were transferred from the gels to a polyvinyldifluoride membrane for Western Blotting using a Trans-Blot® Turbo (BioRad). FLAG-tagged enzymes were stained using rabbit anti-FLAG as primary antibody, and goat-anti-rabbit HRP as secondary antibody. The blot was developed in the dark using a 10 mL luminal solution, 100 μL ECL enhancer and 3 μL H2O2. Chemiluminescence was visualized using a ChemiDoc XRS (BioRad).
(§4) The percentage of DAGL activity remaining in the assayed samples was determined by measuring the integrated optical intensity of the fluorescent protein bands of the Western Blot using image lab 4.1. The relative intensity was compared to the vehicle (DMSO) treated proteins, which were set to 100%. IC50 values were determined by plotting a log(inhibitor) vs. normalized response (Variable slope) dose-response curve generated using Prism software (GraphPad).

In the next test the target is DAGLβ (hDAGLβ-FLAG) (Homo sapiens (Human), UniProt Q8NCG7). The test is described as above. It counts as biochemical. As to conditions: for inhibition at 0.0032 µM: read-out: DAGLβ % inh. 3.2 nM; for IC50: read-out: DAGLβ IC50. How it is done: as §1, §2, §3, §4

By IC50 is commonly meant the concentration that gives 50% inhibition.

Chain of DAGLα (hDAGLα-FLAG) (Q9Y4D2 whole entry): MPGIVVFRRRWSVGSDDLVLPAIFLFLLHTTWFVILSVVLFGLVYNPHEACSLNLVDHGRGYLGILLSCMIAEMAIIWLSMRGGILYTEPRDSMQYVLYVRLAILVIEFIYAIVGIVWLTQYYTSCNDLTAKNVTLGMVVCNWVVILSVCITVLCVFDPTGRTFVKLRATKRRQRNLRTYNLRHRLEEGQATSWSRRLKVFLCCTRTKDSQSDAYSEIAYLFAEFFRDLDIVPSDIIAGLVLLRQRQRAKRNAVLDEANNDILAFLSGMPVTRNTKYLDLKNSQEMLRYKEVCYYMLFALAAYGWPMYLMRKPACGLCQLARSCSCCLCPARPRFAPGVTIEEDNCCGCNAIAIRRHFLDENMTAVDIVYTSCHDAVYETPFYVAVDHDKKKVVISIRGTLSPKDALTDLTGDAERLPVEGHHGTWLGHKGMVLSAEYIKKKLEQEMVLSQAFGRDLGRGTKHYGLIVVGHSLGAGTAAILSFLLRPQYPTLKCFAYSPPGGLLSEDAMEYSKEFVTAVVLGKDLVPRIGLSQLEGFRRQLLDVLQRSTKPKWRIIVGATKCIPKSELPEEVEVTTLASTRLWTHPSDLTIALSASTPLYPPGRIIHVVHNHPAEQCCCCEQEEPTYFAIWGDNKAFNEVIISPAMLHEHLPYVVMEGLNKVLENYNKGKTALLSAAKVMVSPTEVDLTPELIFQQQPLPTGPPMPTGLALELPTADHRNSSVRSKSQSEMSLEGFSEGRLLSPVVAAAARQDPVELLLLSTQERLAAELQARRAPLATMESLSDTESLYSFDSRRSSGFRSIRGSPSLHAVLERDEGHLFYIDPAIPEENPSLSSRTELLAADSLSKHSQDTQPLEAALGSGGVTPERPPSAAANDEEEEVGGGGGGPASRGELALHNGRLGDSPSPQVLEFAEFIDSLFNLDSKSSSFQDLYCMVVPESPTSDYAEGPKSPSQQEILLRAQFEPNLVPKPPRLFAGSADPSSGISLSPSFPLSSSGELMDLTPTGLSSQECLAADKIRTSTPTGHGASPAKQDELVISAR
Chain of DAGLβ (hDAGLβ-FLAG) (Q8NCG7 whole entry): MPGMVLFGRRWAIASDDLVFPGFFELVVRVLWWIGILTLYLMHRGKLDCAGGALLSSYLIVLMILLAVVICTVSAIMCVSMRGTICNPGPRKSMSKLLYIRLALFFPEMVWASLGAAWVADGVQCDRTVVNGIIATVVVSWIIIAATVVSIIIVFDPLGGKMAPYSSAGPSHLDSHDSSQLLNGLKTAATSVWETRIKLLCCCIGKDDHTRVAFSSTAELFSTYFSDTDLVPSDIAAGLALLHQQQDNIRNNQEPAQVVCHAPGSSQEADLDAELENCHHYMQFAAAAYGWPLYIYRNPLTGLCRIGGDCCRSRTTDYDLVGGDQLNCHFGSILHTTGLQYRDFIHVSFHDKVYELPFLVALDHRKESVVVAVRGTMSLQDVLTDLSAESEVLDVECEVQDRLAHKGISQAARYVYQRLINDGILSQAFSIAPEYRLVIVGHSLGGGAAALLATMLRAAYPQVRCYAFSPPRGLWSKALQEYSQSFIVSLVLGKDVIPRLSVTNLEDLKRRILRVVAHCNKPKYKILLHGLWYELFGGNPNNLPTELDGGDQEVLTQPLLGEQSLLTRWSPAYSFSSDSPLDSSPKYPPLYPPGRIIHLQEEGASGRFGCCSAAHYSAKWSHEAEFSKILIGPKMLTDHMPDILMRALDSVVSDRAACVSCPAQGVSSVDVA

Consider `O=C(N1C[C@@H](OCC2CC2)CC[C@@H]1Cc1ccccc1)n1ncc(-c2ccc(OC(F)(F)F)cc2)n1` [Compound 45, ((2R,5S)-2-benzyl-5-(cyclopropylmethoxy)piperidin-1-yl)(4-(4-(trifluoromethoxy)phenyl)-2H-1,2,3-triazol-2-yl)methanone], for which the inhibition at 0.0032 µM at DAGLα (hDAGLα-FLAG) fell in the range of 25 to 50%; at DAGLβ (hDAGLβ-FLAG), 0 to 25%.

Regarding `O=C(N1C[C@H](O)C=C[C@@H]1COCc1ccccc1)n1cc(-c2ccc(OC(F)(F)F)cc2)nn1` [Compound 50, ((3R,6R)-6-((Benzyloxy)methyl)-3-hydroxy-3,6-dihydropyridin-1(2H)-yl)(4-(4-(trifluoromethoxy)phenyl)-1H-1,2,3-triazol-1-yl)methanone], the inhibition at 0.0032 µM at DAGLα (hDAGLα-FLAG) and at DAGLβ (hDAGLβ-FLAG) was 0 to 25% throughout.

Take `O=C(N1C[C@H](O)C=C[C@@H]1COCc1ccccc1)n1ncc(-c2ccc(OC(F)(F)F)cc2)n1` [Compound 51, ((3R,6R)-6-((Benzyloxy)methyl)-3-hydroxy-3,6-dihydropyridin-1(2H)-yl)(4-(4-(trifluoromethoxy)phenyl)-2H-1,2,3-triazol-2-yl)methanone]: the inhibition at 0.0032 µM at DAGLα (hDAGLα-FLAG) and at DAGLβ (hDAGLβ-FLAG) was 0 to 25% throughout.

For `CCC(CC)CN(CCc1ccncc1)C(=O)n1cc(-c2ccc(OC(F)(F)F)cc2)nn1` [Compound 53, N-(2-Ethylbutyl)-N-(2-(pyridin-4-yl)ethyl)-4-(4-(trifluoromethoxy)phenyl)-1H-1,2,3-triazole-1-carboxamide], the half-maximal inhibitory concentration (IC50) at DAGLα (hDAGLα-FLAG) is 400 to 2000 nM; at DAGLβ (hDAGLβ-FLAG), ≤ 400 nM.

In the case of `CCC(CC)CN(CCc1ccncc1)C(=O)n1ncc(-c2ccc(OC(F)(F)F)cc2)n1` [Compound 54, N-(2-Ethylbutyl)-N-(2-(pyridin-4-yl)ethyl)-4-(4-(trifluoromethoxy)phenyl)-2H-1,2,3-triazole-2-carboxamide], the 50% inhibitory concentration (IC50) on DAGLα (hDAGLα-FLAG) is > 10000 nM; at DAGLβ (hDAGLβ-FLAG), 2000 to 10000 nM.

For `O=C(N1CCCCC1Cc1ccccc1)n1cc(-c2ccc(-c3ccncc3)cc2)nn1` (centres unmarked) [Compound 59, (2-benzylpiperidin-1-yl)(4-(4-(pyridin-4-yl)phenyl)-1H-1,2,3-triazol-1-yl)methanone], the IC50 was in the range of 400 to 2000 nM at DAGLα (hDAGLα-FLAG) and 2000 to 10000 nM at DAGLβ (hDAGLβ-FLAG).

Consider `O=C(N1CCCCC1Cc1ccccc1)n1cc(-c2ccc(-c3cccnc3)cc2)nn1` (centres unmarked) [Compound 60, (2-benzylpiperidin-1-yl)(4-(4-(pyridin-3-yl)phenyl)-1H-1,2,3-triazol-1-yl)methanone], for which the IC50 at DAGLα (hDAGLα-FLAG) is ≤ 400 nM; at DAGLβ (hDAGLβ-FLAG), 2000 to 10000 nM.

In the case of `O=C(N1CCCCC1Cc1ccccc1)n1cc(-c2ccc(-c3ccccn3)cc2)nn1` (centres unmarked) [Compound 61, (2-benzylpiperidin-1-yl)(4-(4-(pyridin-2-yl)phenyl)-1H-1,2,3-triazol-1-yl)methanone], the values for the IC50 on DAGLα (hDAGLα-FLAG) and on DAGLβ (hDAGLβ-FLAG) were 400 to 2000 nM and 2000 to 10000 nM, respectively.

On to `COc1ccc(-c2ccc(-c3cn(C(=O)N4CCCCC4Cc4ccccc4)nn3)cc2)c(OC)c1` (centres unmarked) [Compound 62, (2-benzylpiperidin-1-yl)(4-(2′,4′-dimethoxy-[1,1′-biphenyl]-4-yl)-1H-1,2,3-triazol-1-yl)methanone], for which the IC50 was ≤ 400 nM on DAGLα (hDAGLα-FLAG) and 2000 to 10000 nM at DAGLβ (hDAGLβ-FLAG).

With `COc1cccc(OC)c1-c1ccc(-c2cn(C(=O)N3CCCCC3Cc3ccccc3)nn2)cc1` (centres unmarked) [Compound 63, (2-benzylpiperidin-1-yl)(4-(2′,6′-dimethoxy-[1,1′-biphenyl]-4-yl)-1H-1,2,3-triazol-1-yl)methanone], the IC50 is ≤ 400 nM on DAGLα (hDAGLα-FLAG) and 2000 to 10000 nM on DAGLβ (hDAGLβ-FLAG).

For `COc1cc(C)cc(OC)c1-c1ccc(-c2cn(C(=O)N3CCCCC3Cc3ccccc3)nn2)cc1` (centres unmarked) [Compound 64, (2-benzylpiperidin-1-yl)(4-(2′,6′-dimethoxy-4′-methyl-[1,1′-biphenyl]-4-yl)-1H-1,2,3-triazol-1-yl)methanone], the IC50 at DAGLα (hDAGLα-FLAG) is ≤ 400 nM; at DAGLβ (hDAGLβ-FLAG), 2000 to 10000 nM.

Consider `COc1cnccc1-c1ccc(-c2cn(C(=O)N3CCCCC3Cc3ccccc3)nn2)cc1` (centres unmarked) [Compound 65, (2-benzylpiperidin-1-yl)(4-(4-(3-methoxypyridin-4-yl)phenyl)-1H-1,2,3-triazol-1-yl)methanone], for which the concentration for half-maximal inhibition (IC50) at DAGLα (hDAGLα-FLAG) is 400 to 2000 nM; on DAGLβ (hDAGLβ-FLAG) it was 2000 to 10000 nM.

As for `O=C(N1CCCCC1Cc1ccncc1)n1cc(-c2ccc(-c3ccccc3)cc2)nn1` (centres unmarked) [Compound 66, (4-([1,1′-biphenyl]-4-yl)-1H-1,2,3-triazol-1-yl)(2-(pyridin-4-ylmethyl)piperidin-1-yl)methanone], the concentration for half-maximal inhibition (IC50) on DAGLα (hDAGLα-FLAG) and on DAGLβ (hDAGLβ-FLAG) was ≤ 400 nM throughout.

For the compound `COc1cc(OC)c(-c2ccc(-c3cn(C(=O)N4CCCCC4Cc4ccncc4)nn3)cc2)c(OC)c1` (centres unmarked) [Compound 67, (2-(pyridin-4-ylmethyl)piperidin-1-yl)(4-(2′,4′,6′-trimethoxy-[1,1′-biphenyl]-4-yl)-1H-1,2,3-triazol-1-yl)methanone], the IC50 is ≤ 400 nM on DAGLα (hDAGLα-FLAG) and 2000 to 10000 nM on DAGLβ (hDAGLβ-FLAG).

For the compound `COc1cc(C)cc(OC)c1-c1ccc(-c2cn(C(=O)N3CCCCC3Cc3ccncc3)nn2)cc1` (centres unmarked) [Compound 68, (4-(2′,6′-dimethoxy-4′-methyl-[1,1′-biphenyl]-4-yl)-1H-1,2,3-triazol-1-yl)(2-(pyridin-4-ylmethyl)piperidin-1-yl)methanone], the figures for the IC50 on DAGLα (hDAGLα-FLAG) and on DAGLβ (hDAGLβ-FLAG) were ≤ 400 nM and 2000 to 10000 nM, respectively.

As for `COc1cc(Cl)cc(OC)c1-c1ccc(-c2cn(C(=O)N3CCCCC3Cc3ccncc3)nn2)cc1` (centres unmarked) [Compound 69, (4-(4′-chloro-2′,6′-dimethoxy-[1,1′-biphenyl]-4-yl)-1H-1,2,3-triazol-1-yl)(2-(pyridin-4-ylmethyl)piperidin-1-yl)methanone], the concentration for half-maximal inhibition (IC50) on DAGLα (hDAGLα-FLAG) was ≤ 400 nM; at DAGLβ (hDAGLβ-FLAG) it was 2000 to 10000 nM.

As to `COc1cncc(OC)c1-c1ccc(-c2cnn(C(=O)N3CCCCC3Cc3ccccc3)n2)cc1` (centres unmarked) [Compound 70, (2-benzylpiperidin-1-yl)(4-(4-(3,5-dimethoxypyridin-4-yl)phenyl)-2H-1,2,3-triazol-2-yl)methanone], the IC50 on DAGLα (hDAGLα-FLAG) was 2000 to 10000 nM; on DAGLβ (hDAGLβ-FLAG) it was > 10000 nM.

For the compound `Cc1cncc(C)c1-c1ccc(-c2cn(C(=O)N3CCCCC3Cc3ccccc3)nn2)cc1` (centres unmarked) [Compound 71, (2-benzylpiperidin-1-yl)(4-(4-(3,5-dimethylpyridin-4-yl)phenyl)-1H-1,2,3-triazol-1-yl)methanone], the half-maximal inhibitory concentration (IC50) at DAGLα (hDAGLα-FLAG) was ≤ 400 nM; at DAGLβ (hDAGLβ-FLAG), 400 to 2000 nM.

For `O=C(N1CCCCC1Cc1ccccc1)n1cc(-c2ccc(-c3c(F)cncc3F)cc2)nn1` (centres unmarked) [Compound 72, (2-benzylpiperidin-1-yl)(4-(4-(3,5-difluoropyridin-4-yl)phenyl)-1H-1,2,3-triazol-1-yl)methanone], the IC50 at DAGLα (hDAGLα-FLAG) and on DAGLβ (hDAGLβ-FLAG) was 400 to 2000 nM each time.

`O=C(N1CCCCC1Cc1ccccc1)n1cc(-c2ccc(-c3c(Cl)cncc3Cl)cc2)nn1` (centres unmarked) [Compound 73, (2-benzylpiperidin-1-yl)(4-(4-(3,5-dichloropyridin-4-yl)phenyl)-1H-1,2,3-triazol-1-yl)methanone]: the IC50 at DAGLα (hDAGLα-FLAG) and at DAGLβ (hDAGLβ-FLAG) was ≤ 400 nM in each case.

`COc1cc(OC)c(-c2ccc(-c3cn(C(=O)N4CCCCC4Cc4ccccc4)nn3)cn2)c(OC)c1` (centres unmarked) [Compound 74, (2-benzylpiperidin-1-yl)(4-(6-(2,4,6-trimethoxyphenyl)pyridin-3-yl)-1H-1,2,3-triazol-1-yl)methanone]: the IC50 on DAGLα (hDAGLα-FLAG) was ≤ 400 nM; on DAGLβ (hDAGLβ-FLAG) it was 2000 to 10000 nM.

For `CN(C)C(=O)c1ccc(-c2ccc(-c3cn(C(=O)N4CCCCC4Cc4ccccc4)nn3)cc2)cc1` (centres unmarked) [Compound 75, 4′-(1-(2-benzylpiperidine-1-carbonyl)-1H-1,2,3-triazol-4-yl)-N,N-dimethyl-[1,1′-biphenyl]-4-carboxamide], the IC50 on DAGLα (hDAGLα-FLAG) was 2000 to 10000 nM; at DAGLβ (hDAGLβ-FLAG), > 10000 nM.

`CN(C)C(=O)c1cccc(-c2ccc(-c3cn(C(=O)N4CCCCC4Cc4ccccc4)nn3)cc2)c1` (centres unmarked) [Compound 76, 4′-(1-(2-benzylpiperidine-1-carbonyl)-1H-1,2,3-triazol-4-yl)-N,N-dimethyl-[1,1′-biphenyl]-3-carboxamide]: the values for the half-inhibitory concentration (IC50) at DAGLα (hDAGLα-FLAG) and at DAGLβ (hDAGLβ-FLAG) were 400 to 2000 nM and > 10000 nM, respectively.

Regarding `CN(C)C(=O)c1ccccc1-c1ccc(-c2cn(C(=O)N3CCCCC3Cc3ccccc3)nn2)cc1` (centres unmarked) [Compound 77, 4′-(1-(2-benzylpiperidine-1-carbonyl)-1H-1,2,3-triazol-4-yl)-N,N-dimethyl-[1,1′-biphenyl]-2-carboxamide], the values for the IC50 on DAGLα (hDAGLα-FLAG) and on DAGLβ (hDAGLβ-FLAG) were ≤ 400 nM and 400 to 2000 nM, respectively.

In the case of `COc1cc(C(N)=O)cc(OC)c1-c1ccc(-c2cn(C(=O)N3CCCCC3Cc3ccccc3)nn2)cc1` (centres unmarked) [Compound 78, 4′-(1-(2-benzylpiperidine-1-carbonyl)-1H-1,2,3-triazol-4-yl)-2,6-dimethoxy-[1,1′-biphenyl]-4-carboxamide], the half-maximal inhibitory concentration (IC50) at DAGLα (hDAGLα-FLAG) is 400 to 2000 nM; at DAGLβ (hDAGLβ-FLAG), > 10000 nM.
